Legend:
[1] = "negative" or "none": SI value naturally less than 3; cited from earlier work
[2] = skin sensitization test by Local Lymph Node Assay (LLNA), Stimulation Index; format: in vivo; settings: SI less than 3 = no problem
Excerpt: However, inkjet ink in which such compounds are blended to provide a curing property sufficient for practical use has a relatively high viscosity in comparison with typical optical polymerizable inkjet ink. Therefore, for example, if a desirable high image density is to be obtained by increasing the blend ratio of a pigment, such inkjet ink requires an extra decrease in the viscosity to achieve stable ejection.
The Local Lymph Node Assay (LLNA) method is a skin sensitization test defined as OECD Test Guideline 429 and as described in documents such as an issue of September 2005, Vol. 25, No. 9, p 55, published by CMC Publishing Co., Ltd., when a compound has a Stimulation Index (SI) of less than 3, which is an indicator of the degree of […], the compound is determined to have no problem with regard to the skin sensitization.
The details of A1 to A14, B1 and B2, C1 and C2, and D1 in Tables 1 to 8 are as follows: The value in the parentheses at the end of A1 to A14 is an SI value. “negative” or “none” means evaluation of skin sensitization as “negative” or “none” in the MSDS sheet in which the SI value is naturally less than 3.

Compound | evaluation of skin sensitization in the MSDS sheet [1] | SI value (Stimulation Index) [2]
C=CC(=O)NCCO [Example A11, Hydroxyethyl acrylamide] | None | 
C=C(C)C(=O)OC1CCOC1=O (stereo not drawn) [Example A4, γ-butylo lactone methacrylate] |  | 2.1
Caprolactone-modified dipentaerythritol hexaacrylate [Example A7] | negative | 

From US8926082B2, “Optically polymerizable ink jet ink, ink cartridge, and printer” (Ricoh Company, Ltd., priority 2011, dated 2015)
